According to patent publication US20060142319A1, “Pyridyl-substituted spiro-hydantoin crystalline forms and process” (priority 2004, published 2006):

Experiments:
CYP 2C19 = CYP 2C19 (Homo sapiens, UniProt P33261); assay: CYP assay; format: in vitro ADME; details: CYP assay per Drug Metabolism and Disposition 28, 1440-1448 (2000)
Description: The CYP assay was conducted according to the procedure in Drug Metabolism and Disposition, 28, 1440-1448 (2000).

[1] = Microsomal liver assay (rate of oxidative metabolism); format: in vitro ADME; details: human liver microsomes; 3 μM test compound, 1 mg/mL microsomal proteins, NADPH, 37° C.
Description: Mouse and rat liver microsomes were purchased from XenoTech LLC (Kansas City, Kans.), and human liver microsomes were obtained from BD Gentest (Woburn, Mass.).
The oxidative metabolism in liver microsomes of various species was studied under the following condition: 3 μM test compound (organic solvent content <0.1%), 1 mg/mL microsomal proteins, 1 mM β-nicotinamide adenine dinucleotide phosphase (β-NADPH), 100 mM phosphate buffer (pH 7.4), and 6.7 mM magnesium chloride. The reaction (n=3) was initiated by the addition of NADPH followed by incubation at 37° C. for 20 min. Aliquots of samples (0.1 mL) were taken at 0, 5, and 20 min, and the reaction was quenched by the addition of three volumes of acetonitrile. Samples were stored at −20° C. until analysis.
The rate of oxidation in liver microsomes was determined from the following equation: rate (nmol/min/mg protein)=k*C0/Cprotein, where k (1/min) is the turnover rate constant estimated from non-linear regression of the percent compound remaining (y)-time (t) curve using the equation y=y0*exp(−k*t); C0 is initial drug concentration (μM), and Cprotein is microsomal protein concentration (mg/mL).
Rates of metabolism are “binned” (classified) as follows: […]

CYP 2C19, sequence (P33261 whole entry): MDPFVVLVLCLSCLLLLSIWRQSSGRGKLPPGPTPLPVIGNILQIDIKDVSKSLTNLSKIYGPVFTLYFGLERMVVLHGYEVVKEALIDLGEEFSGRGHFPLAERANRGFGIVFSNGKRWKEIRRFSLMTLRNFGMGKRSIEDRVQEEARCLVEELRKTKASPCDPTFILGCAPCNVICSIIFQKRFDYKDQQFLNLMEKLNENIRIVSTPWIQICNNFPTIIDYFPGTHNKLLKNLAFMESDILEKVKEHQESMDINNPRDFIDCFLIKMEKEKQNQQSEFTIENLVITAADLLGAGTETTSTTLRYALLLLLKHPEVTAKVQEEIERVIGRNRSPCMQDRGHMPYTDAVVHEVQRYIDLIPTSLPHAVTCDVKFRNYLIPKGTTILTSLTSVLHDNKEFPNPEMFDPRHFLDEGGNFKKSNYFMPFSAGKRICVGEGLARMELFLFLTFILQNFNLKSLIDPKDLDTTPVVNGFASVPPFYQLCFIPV

| SMILES | IC50 (CYP 2C19) [µM] | rate of metabolism [1] [nmol/min/mg] |
| --- | --- | --- |
| CN1C(=O)N(c2cc(Cl)cc(Cl)c2)C(=O)[C@]12CN(c1ccccn1)C[C@H]2c1ccc(C#N)cc1 (relative stereo) [4-[(5S*,9R*)-3-(3,5-dichlorophenyl)-1-methyl-2,4-dioxo-7-pyridin-2-yl-1,3,7-triazaspiro[4.4]non-9-yl]-benzonitrile] | 0.11 | 0.2 |
| CN1C(=O)N(c2cc(Cl)cc(Cl)c2)C(=O)[C@]12CN(c1ccc(C(=O)O)cn1)C[C@H]2c1ccc(C#N)cc1 [IId, 6-[(5S,9R)-9-(4-cyanophenyl)-3-(3,5-dichlorophenyl)-1-methyl-2,4-dioxo-1,3,7-triazaspiro[4.4]non-7-yl]nicotinic acid] | 38.2 ± 2.22 | 0.01 ± 0.01 |
